Results published in patent US6737383B1, “Herbicidal oxadiazolidines” (priority 1999, dated 2004).

Legend:
bedstraw = test: Test B pre/postemergence bedstraw; type: in vivo, Galium aparine; settings: Preemergence
Outline: (§1)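 Response is a visual 0-to-10 score relative to untreated plants, where 0 means no effect and 10 means complete control, taken twelve to sixteen days after application. Treatments went onto soil at planting and onto foliage of 1- to 4-leaf plants, using a surfactant-containing non-phytotoxic solvent.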

blackgrass = test: Test B pre/postemergence blackgrass; type: in vivo, Alopecurus myosuroides
Outline: as §1

surinam grass = test: Test B pre/postemergence surinam grass; type: in vivo, Brachiaria decumbens
Outline: as §1

cocklebur = test: Test B pre/postemergence cocklebur; type: in vivo, Xanthium strumarium
Outline: as §1

corn = test: Test B pre/postemergence corn; type: in vivo, Zea mays
Outline: as §1

crabgrass = test: Test B pre/postemergence crabgrass; type: in vivo, Digitaria sanguinalis
Outline: as §1

giant foxtail = test: Test B pre/postemergence giant foxtail; type: in vivo, Setaria faberii
Outline: as §1

morningglory = test: Test B pre/postemergence morningglory; type: in vivo, Ipomoea hederacea
Outline: as §1

pigweed = test: Test B pre/postemergence pigweed; type: in vivo, Amaranthus retroflexus
Outline: as §1

rape = test: Test B pre/postemergence rape; type: in vivo, Brassica napus
Outline: as §1

soybean = test: Test B pre/postemergence soybean; type: in vivo, Glycine max
Outline: as §1

sugar beet = test: Test B pre/postemergence sugar beet; type: in vivo, Beta vulgaris
Outline: as §1

velvetleaf = test: Test B pre/postemergence velvetleaf; type: in vivo, Abutilon theophrasti
Outline: as §1

wheat = test: Test B pre/postemergence wheat; type: in vivo, Triticum aestivum
Outline: as §1

wild oat = test: Test B pre/postemergence wild oat; type: in vivo, Avena fatua
Outline: as §1

purple nutsedge = test: Test B pre/postemergence purple nutsedge; type: in vivo, Cyperus rotundus
Outline: as §1

[1] = Postemergence, Rate 62 g/ha, scale of 0 to 10, 0 is no effect, 10 is complete control
[2] = Postemergence, Rate 125 g/ha, scale 0 to 10, 0 is no effect, 10 is complete control
[3] = Postemergence, Rate 500 g/ha, scale 0 to 10, 0 is no effect, 10 is complete control
[4] = Preemergence, Rate 62 g/ha, scale 0 to 10 (0 no effect, 10 complete control)
[5] = Preemergence, Rate 125 g/ha, scale 0 to 10, 0 is no effect, 10 is complete control
[6] = Rate 250 g/ha, Postemergence, scale of 0 to 10 where 0 is no effect and 10 is complete control
[7] = Preemergence, Rate 500 g/ha, scale of 0 to 10 where 0 is no effect and 10 is complete control

CCOCn1c(=O)on(C(=O)N(c2ccc(Cl)cc2)C(C)C)c1=O [Compound 534]
Bedstraw plant response rating (bedstraw; Rate 62 g/ha, scale 0 to 10 (0 no effect, 10 complete control)): 0
Bedstraw plant response rating (bedstraw; Rate 125 g/ha, scale 0 to 10, 0 is no effect, 10 is complete control): 0
Bedstraw plant response rating (0 to 10 scale) (bedstraw; Rate 250 g/ha): 0
Blackgrass plant response rating (blackgrass; [1]): 0
Blackgrass plant response rating (blackgrass; [2]): 2
Plant response rating, Blackgrass (blackgrass; [3]): 7
Blackgrass plant response rating (blackgrass; [4]): 8
Blackgrass plant response rating (blackgrass; [5]): 9
Blackgrass plant response rating (0 to 10 scale) (blackgrass; Preemergence, Rate 250 g/ha): 9
Plant response rating, Blackgrass (blackgrass; [6]): 7
B. signalgrass plant response rating (surinam grass; [1]): 0
B. signalgrass plant response rating (surinam grass; [2]): 0
Plant response rating, B. signalgrass (surinam grass; [3]): 6
B. signalgrass plant response rating (surinam grass; [4]): 9
B. signalgrass plant response rating (surinam grass; [5]): 9
B. signalgrass plant response rating (0 to 10 scale, 0 is no effect, 10 is complete control) (surinam grass; Preemergence, Rate 250 g/ha): 9
Plant response rating, B. signalgrass (surinam grass; [6]): 0
Cocklebur plant response rating (cocklebur; [1]): 0
Cocklebur plant response rating (cocklebur; [2]): 0
Plant response rating, Cocklebur (cocklebur; [3]): 0
Cocklebur plant response rating (cocklebur; [4]): 0
Cocklebur plant response rating (cocklebur; [5]): 0
Cocklebur plant response rating (0 to 10 scale) (cocklebur; Preemergence, Rate 250 g/ha): 0
Cocklebur plant response rating (cocklebur; [7]): 0
Plant response rating, Cocklebur (cocklebur; [6]): 0
Corn plant response rating (corn; [1]): 0
Corn plant response rating (corn; [2]): 0
Plant response rating, Corn (corn; [3]): 0
Corn plant response rating (corn; [4]): 0
Corn plant response rating (corn; [5]): 0
Corn plant response rating (0 to 10 scale) (corn; Preemergence, Rate 250 g/ha): 3
Corn plant response rating (corn; [7]): 3
Plant response rating, Corn (corn; [6]): 0
Crabgrass plant response rating (crabgrass; [2]): 5
Plant response rating, Crabgrass (crabgrass; [3]): 8
Crabgrass plant response rating (crabgrass; [4]): 9
Crabgrass plant response rating (crabgrass; [5]): 10
Crabgrass plant response rating (0 to 10 scale) (crabgrass; Preemergence, Rate 250 g/ha): 10
Crabgrass plant response rating (crabgrass; [7]): 10
Plant response rating, Crabgrass (crabgrass; [6]): 4
Giant foxtail plant response rating (giant foxtail; [2]): 3
Plant response rating, Giant foxtail (giant foxtail; [3]): 8
Giant foxtail plant response rating (giant foxtail; [4]): 9
Giant foxtail plant response rating (giant foxtail; [5]): 9
Giant foxtail plant response rating (0 to 10 scale) (giant foxtail; Preemergence, Rate 250 g/ha): 10
Giant foxtail plant response rating (giant foxtail; [7]): 10
Plant response rating, Giant foxtail (giant foxtail; [6]): 4
Morningglory plant response rating (morningglory; [1]): 2
Morningglory plant response rating (morningglory; [2]): 2
Plant response rating, Morningglory (morningglory; [3]): 3
Morningglory plant response rating (morningglory; [4]): 0
Morningglory plant response rating (morningglory; [5]): 0
Morningglory plant response rating (0 to 10 scale) (morningglory; Preemergence, Rate 250 g/ha): 2
Morningglory plant response rating (morningglory; [7]): 0
Plant response rating, Morningglory (morningglory; [6]): 2
Redroot pigweed plant response rating (pigweed; [1]): 0
Redroot pigweed plant response rating (pigweed; [2]): 3
Plant response rating, Redroot pigweed (pigweed; [3]): 7
Redroot pigweed plant response rating (pigweed; [4]): 0
Redroot pigweed plant response rating (pigweed; [5]): 0
Redroot pigweed plant response rating (0 to 10 scale) (pigweed; Preemergence, Rate 250 g/ha): 0
Plant response rating, Redroot pigweed (pigweed; [6]): 3
Rape plant response rating (rape; [1]): 0
Rape plant response rating (rape; [2]): 0
Plant response rating, Rape (rape; [3]): 7
Rape plant response rating (rape; [4]): 2
Rape plant response rating (rape; [5]): 6
Rape plant response rating (0 to 10 scale) (rape; Preemergence, Rate 250 g/ha): 6
Plant response rating, Rape (rape; [6]): 0
Soybean plant response rating (soybean; [2]): 4
Plant response rating, Soybean (soybean; [3]): 7
Soybean plant response rating (soybean; [4]): 0
Soybean plant response rating (soybean; [5]): 0
Soybean plant response rating (0 to 10 scale) (soybean; Preemergence, Rate 250 g/ha): 0
Plant response rating, Soybean (soybean; [6]): 6
Sugarbeets plant response rating (sugar beet; [1]): 0
Sugarbeets plant response rating (sugar beet; [2]): 0
Plant response rating, Sugarbeets (sugar beet; [3]): 2
Sugarbeets plant response rating (sugar beet; [4]): 3
Sugarbeets plant response rating (sugar beet; [5]): 4
Sugarbeets plant response rating (0 to 10 scale) (sugar beet; Preemergence, Rate 250 g/ha): 6
Plant response rating, Sugarbeets (sugar beet; [6]): 3
Velvetleaf plant response rating (velvetleaf; [1]): 0
Velvetleaf plant response rating (velvetleaf; [2]): 2
Plant response rating, Velvetleaf (velvetleaf; [3]): 2
Velvetleaf plant response rating (velvetleaf; [4]): 0
Velvetleaf plant response rating (velvetleaf; [5]): 2
Velvetleaf plant response rating (0 to 10 scale) (velvetleaf; Preemergence, Rate 250 g/ha): 2
Velvetleaf plant response rating (velvetleaf; [7]): 3
Plant response rating, Velvetleaf (velvetleaf; [6]): 2
Wheat plant response rating (wheat; [1]): 0
Wheat plant response rating (wheat; [2]): 0
Plant response rating, Wheat (wheat; [3]): 5
Wheat plant response rating (wheat; [4]): 0
Wheat plant response rating (wheat; [5]): 0
Wheat plant response rating (0 to 10 scale) (wheat; Preemergence, Rate 250 g/ha): 3
Plant response rating, Wheat (wheat; [6]): 3
Wild oats plant response rating (wild oat; [1]): 0
Wild oats plant response rating (wild oat; [2]): 0
Plant response rating, Wild oats (wild oat; [3]): 3
Wild oats plant response rating (wild oat; [4]): 3
Wild oats plant response rating (wild oat; [5]): 8
Wild oats plant response rating (0 to 10 scale) (wild oat; Preemergence, Rate 250 g/ha): 9
Plant response rating, Wild oats (wild oat; [6]): 0
Nutsedge plant response rating (purple nutsedge; [1]): 0
Nutsedge plant response rating (purple nutsedge; [2]): 2
Plant response rating, Nutsedge (purple nutsedge; [3]): 2
Nutsedge plant response rating (purple nutsedge; [4]): 0
Nutsedge plant response rating (purple nutsedge; [5]): 0
Plant response rating, Nutsedge (purple nutsedge; [6]): 2
